Some results are limits rather than exact numbers.

For assay [1], the target named is human muscarinic M3 receptor (Homo sapiens, UniProt P20309). Briefly: Alphascreen Surefire phospho-ERK1/2 functional assay, M3. Conditions: for Emax: CHO, read-out: % Emax cf. ACh, M3, CHO cells stably expressing human M3, relative to ACh; for EC50: pEC50 M3, CHO cells stably expressing human M3, phospho-ERK1/2, * = variable results.
Experimental: CHO cells stably expressing the human muscarinic M1, M2, M3 or M4 receptor were plated (25K/well) onto 96-well tissue culture plates in MEM-alpha+10% dialysed FBS. Once adhered, cells were serum-starved overnight. Agonist stimulation was performed by the addition of 5 μL agonist to the cells for 5 min (37° C.). Media was removed and 50 μL of lysis buffer added. After 15 min, a 4 μL sample was transferred to 384-well plate and 7 μL of detection mixture added. Plates were incubated for 2 h with gentle agitation in the dark and then read on a PHERAstar plate reader.
pEC50 and Emax figures were calculated from the resulting data for each receptor subtype.
Assay [2] concerns the target T1, human muscarinic M1 receptor (Homo sapiens, UniProt P11229).
T1 sequence (P11229 1-460): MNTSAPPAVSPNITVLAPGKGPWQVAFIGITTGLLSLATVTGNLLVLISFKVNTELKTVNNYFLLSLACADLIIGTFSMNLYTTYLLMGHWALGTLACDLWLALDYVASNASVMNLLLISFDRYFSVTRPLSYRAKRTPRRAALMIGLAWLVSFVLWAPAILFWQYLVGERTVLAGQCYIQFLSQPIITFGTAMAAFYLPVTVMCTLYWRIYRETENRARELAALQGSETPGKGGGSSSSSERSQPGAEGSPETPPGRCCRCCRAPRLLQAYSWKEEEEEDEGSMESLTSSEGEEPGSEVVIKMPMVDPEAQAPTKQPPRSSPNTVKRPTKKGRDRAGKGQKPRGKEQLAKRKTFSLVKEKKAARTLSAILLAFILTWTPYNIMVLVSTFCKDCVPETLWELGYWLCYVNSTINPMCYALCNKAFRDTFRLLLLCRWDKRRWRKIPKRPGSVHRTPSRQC
Briefly: Alphascreen Surefire phospho-ERK1/2 functional assay, M1. It counts as cell-based. Conditions: for EC50: CHO cells stably expressing human M1, phospho-ERK1/2, * = variable results, read-out: pEC50 M1 (converted); for Emax: CHO, read-out: % Emax cf. ACh, M1, CHO cells stably expressing human M1, relative to ACh.

Assay [3] concerns the target T2, human muscarinic M2 receptor (Homo sapiens, UniProt P08172).
T2 sequence (P08172 1-466): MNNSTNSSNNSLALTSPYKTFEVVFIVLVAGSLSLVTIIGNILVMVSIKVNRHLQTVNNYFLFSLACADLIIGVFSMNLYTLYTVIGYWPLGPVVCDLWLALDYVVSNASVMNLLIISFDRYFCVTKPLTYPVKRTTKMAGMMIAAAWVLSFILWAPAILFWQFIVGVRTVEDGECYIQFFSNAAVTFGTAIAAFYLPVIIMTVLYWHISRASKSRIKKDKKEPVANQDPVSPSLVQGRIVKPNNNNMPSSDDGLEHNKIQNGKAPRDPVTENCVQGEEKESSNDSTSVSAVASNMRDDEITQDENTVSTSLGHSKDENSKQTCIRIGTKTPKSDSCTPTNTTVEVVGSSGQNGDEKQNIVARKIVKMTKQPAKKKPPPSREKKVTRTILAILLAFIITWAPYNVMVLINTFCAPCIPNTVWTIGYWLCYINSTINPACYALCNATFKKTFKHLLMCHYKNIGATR
Briefly: Alphascreen Surefire phospho-ERK1/2 functional assay, M2. Conditions: for Emax: CHO, read-out: % Emax cf. ACh, M2, CHO cells stably expressing human M2, relative to ACh. (In general: Alpha assays give light when donor and acceptor beads are brought close together.)

For assay [4], the target named is T3, human muscarinic M4 receptor (Homo sapiens, UniProt P08173).
T3 construct: expressed in transfected cells
T3 sequence (P08173 1-479): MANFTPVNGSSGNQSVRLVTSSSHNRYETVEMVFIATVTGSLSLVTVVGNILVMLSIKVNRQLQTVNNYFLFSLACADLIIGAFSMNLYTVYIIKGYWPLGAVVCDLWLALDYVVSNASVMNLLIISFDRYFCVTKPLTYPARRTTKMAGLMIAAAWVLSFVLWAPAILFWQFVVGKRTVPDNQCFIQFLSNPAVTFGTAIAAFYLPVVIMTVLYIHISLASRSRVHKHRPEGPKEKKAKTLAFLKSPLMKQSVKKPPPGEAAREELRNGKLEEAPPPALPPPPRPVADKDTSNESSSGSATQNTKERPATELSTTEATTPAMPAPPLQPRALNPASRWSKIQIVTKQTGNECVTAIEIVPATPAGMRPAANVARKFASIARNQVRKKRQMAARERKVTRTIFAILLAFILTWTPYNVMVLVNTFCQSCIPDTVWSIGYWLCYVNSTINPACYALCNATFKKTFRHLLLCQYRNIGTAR
Put plainly: Alphascreen Surefire phospho-ERK1/2 functional assay, M4. Type of assay: cell-based. Particulars: for EC50: CHO cells stably expressing human M4, phospho-ERK1/2, * = variable results, read-out: pEC50 M4 (converted); for Emax: CHO, read-out: % Emax cf. ACh, M4, CHO cells stably expressing human M4, relative to ACh.

human muscarinic M3 receptor, sequence (P20309 whole entry): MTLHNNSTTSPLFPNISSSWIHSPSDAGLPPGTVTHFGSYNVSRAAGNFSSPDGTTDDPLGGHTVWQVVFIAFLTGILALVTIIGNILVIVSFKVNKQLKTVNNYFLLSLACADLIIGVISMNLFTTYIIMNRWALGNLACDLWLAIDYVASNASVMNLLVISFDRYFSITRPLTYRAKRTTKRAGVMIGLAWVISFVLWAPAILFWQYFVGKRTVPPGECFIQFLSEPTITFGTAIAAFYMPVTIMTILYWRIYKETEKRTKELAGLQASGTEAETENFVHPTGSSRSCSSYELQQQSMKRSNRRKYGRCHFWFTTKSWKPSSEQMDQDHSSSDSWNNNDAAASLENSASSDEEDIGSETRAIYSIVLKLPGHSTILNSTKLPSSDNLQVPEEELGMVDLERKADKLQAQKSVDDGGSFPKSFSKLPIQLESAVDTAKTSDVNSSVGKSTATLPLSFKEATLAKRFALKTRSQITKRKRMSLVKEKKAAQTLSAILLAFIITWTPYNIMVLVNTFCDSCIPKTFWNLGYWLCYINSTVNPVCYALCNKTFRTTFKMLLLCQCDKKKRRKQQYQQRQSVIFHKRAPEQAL

On to `CCOC(=O)N1CCC2(CC(N3CCC([C@H]4CCCN4C(=O)OC)CC3)C2)C1` (single isomer, unassigned) [2-13 Isomer 2], for which the Emax in assay [1] was determined as 24%; in assay [2], 69%; in assay [3] it was 7%; in assay [4], 57%. Further, the EC50 in assay [1] is over 20000 nM; in assay [2], 10000 nM; in assay [3], over 20000 nM; in assay [4] it was 158 nM.
As to `CCOC(=O)N1CCC2(CC(N3CCC(C4CCCN4C(=O)OCC)CC3)C2)C1` (single isomer, unassigned) [2-14 Isomer 2, ethyl 2-{4-[1-(ethoxycarbonyl)pyrrolidin-2-yl]piperidin-1-yl}-6-azaspiro[3.4]octane-6-carboxylate], the Emax in assay [1] worked out at 7%; in assay [2] it was 43%; in assay [3] it was 3%; in assay [4], 91%. The EC50 in assay [1] was over 20000 nM; in assay [2] it was over 20000 nM; in assay [3], over 20000 nM; in assay [4], 15.8 nM.
Take `CNC(=O)N1CCC[C@H]1C1CCN(C2CC3(CCN(C(=O)OC)C3)C2)CC1` (single isomer, unassigned) [2-15 Isomer 2]: the Emax in assay [1] was 9%; in assay [2], 72%; in assay [3], 9%; in assay [4], 111%. Besides, the EC50 was over 20000 nM in assay [1], 398 nM in assay [2], over 20000 nM in assay [3] and 15.8 nM in assay [4].
As to `CCOC(=O)N1CCC2(CC(N3CCC(C4CCCN4C(=O)NC)CC3)C2)C1` (single isomer, unassigned) [2-16 Isomer 2, ethyl 2-{4-[1-(methylcarbamoyl)pyrrolidin-2-yl]piperidin-1-yl}-6-azaspiro[3.4]octane-6-carboxylate], the Emax in assay [1] came to 7%; in assay [2], 41%; in assay [3] it was 53%; in assay [4], 114%. The EC50 is over 20000 nM in assay [1], 251 nM in assay [2], over 20000 nM in assay [3] and 6.31 nM in assay [4].
Consider `CCOC(=O)N1CCC2(CC(N3CCC([C@@H]4CCCN4C(=O)NC)CC3)C2)C1` (single isomer, unassigned) [2-17 Isomer 2], for which the Emax came to 4% in assay [1], 72% in assay [2], 5% in assay [3] and 116% in assay [4]. In addition, the EC50 in assay [1] is over 20000 nM; in assay [2] it was 200 nM; in assay [3], over 20000 nM; in assay [4], 3.16 nM.
For the molecule `CCOC(=O)N1CCC2(CC(N3CCC([C@H]4CCCN4C(=O)NC)CC3)C2)C1` (single isomer, unassigned) [2-18 Isomer 2], the Emax was found to be 4% in assay [1], 8% in assay [2], 1% in assay [3] and 56% in assay [4]. Also, the EC50 in assay [1] is over 20000 nM; in assay [2] it was over 20000 nM; in assay [3] it was over 20000 nM; in assay [4], 79.4 nM.
With `CCNC(=O)N1CCCC1C1CCN(C2CC3(CCN(C(=O)OCC)C3)C2)CC1` (single isomer, unassigned) [2-19 Isomer 2, ethyl 2-{4-[1-(ethylcarbamoyl)pyrrolidin-2-yl]piperidin-1-yl}-6-azaspiro[3.4]octane-6-carboxylate], the Emax in assay [1] turned out to be 10%; in assay [2], 44%; in assay [3], 3%; in assay [4] it was 113%. For the same molecule, the EC50 in assay [1] is over 20000 nM; in assay [2], 631 nM; in assay [3], over 20000 nM; in assay [4], 7.94 nM.
As for `CCOC(=O)N1CCC2(CC(N3CCC(C4CCCN4C(=O)N(C)C)CC3)C2)C1` (single isomer, unassigned) [2-20 Isomer 2, ethyl 2-{4-[1-(dimethylcarbamoyl)pyrrolidin-2-yl]piperidin-1-yl}-6-azaspiro[3.4]octane-6-carboxylate], the Emax in assay [1] came to 6%; in assay [2], 24%; in assay [3], 1%; in assay [4], 106%. Further, the EC50 in assay [1] was over 20000 nM; in assay [2], over 20000 nM; in assay [3], over 20000 nM; in assay [4], 31.6 nM.
For `CCOC(=O)N1CCC2(CC(N3CCC([C@@H]4CCCN4C(=O)N(C)C)CC3)C2)C1` (single isomer, unassigned) [2-21 Isomer 2], the Emax is 2% in assay [1], 46% in assay [2], 4% in assay [3] and 113% in assay [4]. Besides, the EC50 in assay [1] is over 20000 nM; in assay [2], 631 nM; in assay [3] it was over 20000 nM; in assay [4] it was 7.94 nM.
`CCOC(=O)N1CCC2(CC(N3CCC(C4CCCN4C(=O)CNC)CC3)C2)C1` (single isomer, unassigned) [2-23 Isomer 2, ethyl 2-{4-[1-(N-methylglycyl)pyrrolidin-2-yl]piperidin-1-yl}-6-azaspiro[3.4]octane-6-carboxylate]: the Emax stood at 9% in assay [1], 65% in assay [2], 3% in assay [3] and 104% in assay [4]. The EC50 in assay [1] is over 20000 nM; in assay [2] it was 1260 nM; in assay [3], over 20000 nM; in assay [4], 50.1 nM.
On to `CCOC(=O)N1CCC2(CC(N3CCC(C4CCCN4C(=O)NOC)CC3)C2)C1` (single isomer, unassigned) [2-24 Isomer 2, ethyl 2-{4-[1-(methoxycarbamoyl)pyrrolidin-2-yl]piperidin-1-yl}-6-azaspiro[3.4]octane-6-carboxylate], for which the Emax came to 9% in assay [1], 37% in assay [2], 5% in assay [3] and 121% in assay [4]. Besides, the EC50 in assay [1] is over 20000 nM; in assay [2], 631 nM; in assay [3] it was over 20000 nM; in assay [4], 20 nM.
For `CCOC(=O)N1CCC2(CC(N3CCC([C@@H]4CCCN4C(=O)NC(C)C)CC3)C2)C1` (single isomer, unassigned) [2-25 Isomer 2], the maximal effect (Emax) in assay [1] came to 2%; in assay [2], 74%; in assay [3], 6%; in assay [4], 86%. For the same molecule, the EC50 in assay [1] was over 20000 nM; in assay [2] it was 631 nM; in assay [3], over 20000 nM; in assay [4], 10 nM.
Take `CCOC(=O)N1CCC2(CC(N3CCC([C@@H]4CCCN4C(=O)NCC(F)(F)F)CC3)C2)C1` (single isomer, unassigned) [2-26 Isomer 2]: the Emax in assay [1] turned out to be 4%; in assay [2], 92%; in assay [3] it was 66%; in assay [4] it was 99%. Further, the EC50 in assay [1] was over 20000 nM; in assay [2], 12.6 nM; in assay [3], over 20000 nM; in assay [4], 6.31 nM.
On to `CCOC(=O)N1CCC2(CC(N3CCC([C@@H]4CCCN4C(=O)N4CCC4)CC3)C2)C1` (single isomer, unassigned) [2-27 Isomer 2], for which the Emax in assay [1] was 15%; in assay [2] it was 24%; in assay [3], 0.4%; in assay [4], 73%. In addition, the EC50 in assay [1] is over 20000 nM; in assay [2] it was 31.6 nM; in assay [3] it was over 20000 nM; in assay [4] it was 10 nM.

As usually defined, the Emax is the size of the effect at its maximum, as opposed to the concentration needed.

These data come from patent US9926297B2, “Bicyclic AZA compounds as muscarinic M1 receptor and/or M4 receptor agonists” (Heptares Therapeutics Limited, priority 2014, dated 2018).
